According to patent publication US12162848B2, “Inhibitors of protein tyrosine phosphatase, compositions, and methods of use” (BRISTOL-MYERS SQUIBB COMPANY, priority 2022, dated 2024):

How the values were obtained:
PTPN2 enzyme = biological target: T1, PTPN2 enzyme (Homo sapiens, UniProt P17706); assay: PhosphoSens PTPN2 biochemical assay; settings: substrate AQT0264 20 μM, room temperature; read-out: PTPN2 BCHEM IC50
T1 sequence (P17706 1-415): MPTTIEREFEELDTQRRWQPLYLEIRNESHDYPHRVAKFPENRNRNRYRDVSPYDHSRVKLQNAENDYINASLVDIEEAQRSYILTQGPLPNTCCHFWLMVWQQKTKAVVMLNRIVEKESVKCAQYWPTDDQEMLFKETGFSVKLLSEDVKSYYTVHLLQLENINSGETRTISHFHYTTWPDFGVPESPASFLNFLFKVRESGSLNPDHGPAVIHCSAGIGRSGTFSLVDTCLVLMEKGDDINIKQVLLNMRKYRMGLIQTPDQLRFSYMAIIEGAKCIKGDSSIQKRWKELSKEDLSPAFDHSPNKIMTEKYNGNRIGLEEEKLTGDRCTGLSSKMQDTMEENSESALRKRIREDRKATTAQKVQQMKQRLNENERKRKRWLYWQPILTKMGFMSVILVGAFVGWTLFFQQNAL
Description: A PhosphoSens® kinase assay was performed as described by the vendor (AssayQuant Technologies, Marlborough, MA). Briefly, 1000×solutions of compounds were prepared in DMSO via serial dilution of the 10 mM DMSO stocks using 3-fold intervals in a 384-well reagent plate. 50 nL of the compound dilution series was then added to the corresponding wells of a 384-well assay plate. […] of 1.25×substrate (AQT0264) in 1× assay buffer (50 mM HEPES pH 7.5, 500 μM EGTA, […] MgCl2, 0.01% Brij-35, 1% Glycerol, 1 mM DTT, and 0.2 mg/mL BSA) was transferred to each well of the assay plate to achieve a final substrate concentration of 20 μM. Finally, […] of 5×PTPN2 enzyme stock was added to each well of the assay plate for a final enzyme concentration of […]. Reaction progress curves were collected by sampling fluorescence intensity at the excitation wavelength 360 nm (λex360) and emission wavelength 480 nm (λem480) every 71 seconds for one hour using a Synergy H4 plate reader (BioTek Instruments/Agilent Technologies, Winooski, VT) at room temperature.

[1] = test system: phosphorylated STAT1 protein levels in B16-F10 cells; assay: Phospho-STAT1 (Tyr701) HTRF assay in IFN-gamma treated B16-F10 cells; type: cell-based; settings: mouse IFN-gamma 100 ng/mL, 1 hour, read-out: pSTAT1 HTRF B16 EC50
Description: B16-F10 cells (ATCC, Manassas, VA, #CRL-6475) were cultured in DMEM growth medium (ThermoFisher Scientific, Waltham, MA, #11995-040) supplemented with 10% heat inactivated FBS (ThermoFisher Scientific, #16140-071) and 1% pen/strep (ThermoFisher Scientific, #15140-122). The cells were seeded into a white opaque 384-well tissue culture treated microplate (PerkinElmer, Waltham, MA, #6007688) at a density of 10,000 cells/well in 20 uL total volume and incubated overnight at 37 C and 5% CO2. 30 nL of compounds dissolved in DMSO were then transferred from a source plate into target wells with the Echo650 acoustic liquid handler (Beckman Coulter, Indianapolis, IN). Negative control wells received 30 nL of DMSO only (0.15% final concentration). Plates were returned to the incubator for 1 hour and then cells treated with either 5 uL of growth medium or 5 uL of growth medium containing 500 ng/mL of recombinant mouse IFN-gamma protein (R&D Systems, Minneapolis, MN, #485-MI/CF, 100 ng/mL final concentration) using the Assist automated pipetting platform (INTEGRA Biosciences, Hudson, NH). Plates were incubated at 37 C for 1 hour and assayed for phosphorylated STAT1 protein levels with the phospho-STAT1 (Tyr701) HTRF kit (Cisbio, Bedford, MA, #63ADK026PEH) according to manufacturer's instructions.

B16-F10 cells = assay: Cell proliferation assay (CellTiter-Glo) in IFN-gamma treated B16-F10 cells; type: cell-based; settings: 120 h, mouse IFN-gamma 10 ng/mL, read-out: PTPN2 Prolif 5d B16F10 EC50
Description: B16-F10 cells (ATCC, Manassas, VA, #CRL-6475) were cultured in DMEM growth medium (ThermoFisher Scientific, Waltham, MA, #11995-040) supplemented with 10% heat inactivated FBS (ThermoFisher Scientific, #16140-071) and 1% pen/strep (ThermoFisher Scientific, #15140-122). The cells were seeded into two white opaque 384-well tissue culture treated microplates (PerkinElmer, Waltham, MA, #6007688) at a density of 100 cells/well in 20 uL total volume and incubated overnight at 37 C and 5% CO2. 30 nL of compounds dissolved in DMSO were then transferred from a source plate into target wells with the Echo650 acoustic liquid handler (Beckman Coulter, Indianapolis, IN). Negative control wells received 30 nL of DMSO only (0.15% final concentration). Plates were returned to the incubator for 1 hour and then cells treated with either 5 uL of growth medium or 5 uL of growth medium containing 50 ng/mL of recombinant mouse IFN-gamma protein (R&D Systems, Minneapolis, MN, #485-MI/CF, 10 ng/mL final concentration) using the Assist automated pipetting platform (INTEGRA Biosciences, Hudson, NH). Plates were incubated at 37 C for 4 days and cell proliferation assayed with the CellTiter-Glo reagent (Promega, Madison, WI, #G7573, 25 uL per well). […] Off-target compound mediated cytotoxicity was identified by checking for growth inhibition in the absence of IFNg.

IC50 (PTPN2 enzyme) | EC50 [1] | EC50 (B16-F10 cells) | SMILES
30 nM | ≥ 15000 nM | – | O=C1CN(c2c(O)cc(CN[C@H]3CCCN(S(=O)(=O)c4cccc(F)c4)C3)cc2F)S(=O)(=O)N1 [EXAMPLE 70, 5-[2-fluoro-4-[[[(3S)-1-(3-fluorophenyl)sulfonyl-3-piperidyl]amino]methyl]-6-hydroxy-phenyl]-1,1-dioxo-1,2,5-thiadiazolidin-3-one]
– | ≥ 15000 nM | ≥ 15000 nM | O=C1CN(c2c(O)cc(C(=O)N[C@@H]3CCCNC3)cc2F)S(=O)(=O)N1 [EXAMPLE 94, (R)-4-(1,1-dioxido-4-oxo-1,2,5-thiadiazolidin-2-yl)-3-fluoro-5-hydroxy-N-(piperidin-3-yl)benzamide]
70 nM | 1870 nM | – | N#Cc1cc(CNCc2cc(O)c(N3CC(=O)NS3(=O)=O)c(F)c2)ccc1F [EXAMPLE 45, 2-fluoro-5-[[[3-fluoro-5-hydroxy-4-(1,1,4-trioxo-1,2,5-thiadiazolidin-2-yl)phenyl]methylamino]methyl]benzonitrile]
– | ≥ 15000 nM | – | CN(C)C1CCN(Cc2ccc(O)c(N3CC(=O)NS3(=O)=O)c2F)CC1 [EXAMPLE 102, 5-(3-((4-(dimethylamino)piperidin-1-yl)methyl)-2-fluoro-6-hydroxyphenyl)-1,2,5-thiadiazolidin-3-one 1,1-dioxide]
1200 nM | – | – | O=C1CN(c2c(O)cc(NC3CCNCC3)cc2F)S(=O)(=O)N1 [EXAMPLE 88, 5-(2-fluoro-6-hydroxy-4-(piperidin-4-ylamino)phenyl)-1,2,5-thiadiazolidin-3-one 1,1-dioxide]
– | ≥ 15000 nM | – | CC(C)CCN1CCN(Cc2ccc(O)c(N3CC(=O)NS3(=O)=O)c2F)CC1 [EXAMPLE 104, 5-[2-fluoro-6-hydroxy-3-[(4-isopentylpiperazin-1-yl)methyl]phenyl]-1,1-dioxo-1,2,5-thiadiazolidin-3-one]
– | ≥ 15000 nM | – | CN(Cc1cc(O)c(N2CC(=O)NS2(=O)=O)c(F)c1)C1CCC(C)(C)CC1 [EXAMPLE 77, 5-[4-[[(4,4-dimethylcyclohexyl)-methyl-amino]methyl]-2-fluoro-6-hydroxy-phenyl]-1,1-dioxo-1,2,5-thiadiazolidin-3-one]
10 nM | 197 nM | – | O=C1CN(c2c(O)cc(CNc3cc(C4CC4)ccn3)cc2F)S(=O)(=O)N1 [EXAMPLE 82, 5-[4-[[(4-cyclopropyl-2-pyridyl)amino]methyl]-2-fluoro-6-hydroxy-phenyl]-1,1-dioxo-1,2,5-thiadiazolidin-3-one]
401 nM | 11300 nM | – | COCCC1CCN(Cc2cc(O)c(N3CC(=O)NS3(=O)=O)c(F)c2)CC1 [EXAMPLE 55, 5-[2-fluoro-6-hydroxy-4-[[4-(2-methoxyethyl)-1-piperidyl]methyl]phenyl]-1,1-dioxo-1,2,5-thiadiazolidin-3-one]

More lines, now with the values behind:

SMILES | IC50 (PTPN2 enzyme) | EC50 [1] | EC50 (B16-F10 cells)
O=C1CN(c2c(O)ccc(CNC3CCOCC3)c2F)S(=O)(=O)N1 [EXAMPLE 101, 5-(2-fluoro-6-hydroxy-3-(((tetrahydro-2H-pyran-4-yl)amino)methyl)phenyl)-1,2,5-thiadiazolidin-3-one 1,1-dioxide] | – | ≥ 15000 nM | ≥ 15000 nM
CC(=O)N1CCC[C@@H](NCc2cc(O)c(N3CC(=O)NS3(=O)=O)c(F)c2)C1 [EXAMPLE 68, 5-[4-[[[(3R)-1-acetyl-3-piperidyl]amino]methyl]-2-fluoro-6-hydroxy-phenyl]-1,1-dioxo-1,2,5-thiadiazolidin-3-one] | 32 nM | 6680 nM | –
CC(C)OC1CCN(Cc2cc(O)c(N3CC(=O)NS3(=O)=O)c(F)c2)CC1 [EXAMPLE 54, 5-[2-fluoro-6-hydroxy-4-[(4-isopropoxy-1-piperidyl)methyl]phenyl]-1,1-dioxo-1,2,5-thiadiazolidin-3-one] | 331 nM | 13100 nM | –
O=C1CN(c2c(O)ccc(C3CCNCC3)c2F)S(=O)(=O)N1 [EXAMPLE 105, 5-(2-fluoro-6-hydroxy-3-(piperidin-4-yl)phenyl)-1,2,5-thiadiazolidin-3-one 1,1-dioxide] | – | ≥ 15000 nM | ≥ 15000 nM
CN1CCCC(c2cc(O)c(N3CC(=O)NS3(=O)=O)c(F)c2)C1 (centres unmarked) [EXAMPLE 3, 5-(2-fluoro-6-hydroxy-4-(1-methylpiperidin-3-yl)phenyl)-1,2,5-thiadiazolidin-3-one 1,1-dioxide] | 4730 nM | – | –
O=C1CN(c2c(O)cc(C3CCNCC3)cc2F)S(=O)(=O)N1 [EXAMPLE 2, 5-[2-fluoro-6-hydroxy-4-(4-piperidyl)phenyl]-1,1-dioxo-1,2,5-thiadiazolidin-3-one] | 1300 nM | – | –
COc1ncccc1-c1cc(O)c(N2CC(=O)NS2(=O)=O)c(F)c1 [EXAMPLE 25, 5-[2-fluoro-6-hydroxy-4-(2-methoxy-3-pyridyl)phenyl]-1,1-dioxo-1,2,5-thiadiazolidin-3-one] | 266 nM | 9740 nM | –
O=C1CN(c2c(O)ccc(CN3CCC(F)CC3)c2F)S(=O)(=O)N1 [EXAMPLE 98, 5-(2-fluoro-3-((4-fluoropiperidin-1-yl)methyl)-6-hydroxyphenyl)-1,2,5-thiadiazolidin-3-one 1,1-dioxide] | – | ≥ 15000 nM | –
O=C1CN(c2c(O)cc(CN[C@@H]3CCCN(S(=O)(=O)c4cccc(F)c4)C3)cc2F)S(=O)(=O)N1 [EXAMPLE 69, 5-[2-fluoro-4-[[[(3R)-1-(3-fluorophenyl)sulfonyl-3-piperidyl]amino]methyl]-6-hydroxy-phenyl]-1,1-dioxo-1,2,5-thiadiazolidin-3-one] | 88 nM | ≥ 15000 nM | –
CCCN(Cc1cc(O)c(N2CC(=O)NS2(=O)=O)c(F)c1)CC1CCC1 [EXAMPLE 78, 5-[4-[[cyclobutylmethyl(propyl)amino]methyl]-2-fluoro-6-hydroxy-phenyl]-1,1-dioxo-1,2,5-thiadiazolidin-3-one] | 806 nM | ≥ 15000 nM | –
CCCCC1CCN(Cc2cc(O)c(N3CC(=O)NS3(=O)=O)c(F)c2)CC1 [EXAMPLE 57, 5-[4-[(4-butyl-1-piperidyl)methyl]-2-fluoro-6-hydroxy-phenyl]-1,1-dioxo-1,2,5-thiadiazolidin-3-one] | 381 nM | 10900 nM | –
CC(C)CCN1CCC(c2cc(O)c(N3CC(=O)NS3(=O)=O)c(F)c2)CC1 [EXAMPLE 6, 5-[2-fluoro-6-hydroxy-4-(1-isopentyl-4-piperidyl)phenyl]-1,1-dioxo-1,2,5-thiadiazolidin-3-one] | 2750 nM | – | –
CC(=O)N1CCN(Cc2cc(O)c(N3CC(=O)NS3(=O)=O)c(F)c2)CC1 [EXAMPLE 38, 5-(4-((4-acetylpiperazin-1-yl)methyl)-2-fluoro-6-hydroxyphenyl)-1,2,5-thiadiazolidin-3-one 1,1-dioxide] | 83 nM | – | –
